Non-standard residues stand in square brackets, D forms with d. Residues, ends and D or L forms follow the SMILES beside them. Nspe = C[C@H](NCC(=O)O)c1ccccc1; NhArg = N=C(N)NCCCCNCC(=O)O; Nlys = NCCCCNCC(=O)O
What was measured:
[1] = Analytical RP-HPLC elution as relative measure of molecular hydrophobicity; assay type: physicochemical; settings: percentage of acetonitrile at elution, analytic RP-HPLC, C18 column, linear water/acetonitrile (0.1% trifluoroacetic acid) gradient 5%-95% acetonitrile over 30 min
Text: Peptoids were synthesized using an ABI 433A peptide synthesizer (Applied Biosystems, Inc.) on Rink amide MBHA resin (EMD Biosciences, Gibbstown, NJ) using the submonomer protocol, [24]. Briefly, the amine on the nascent chain is bromoacetylated or chloroacetylated followed by SN2 displacement of bromide or chloride by a primary amine to form the side chain. Resin-bound peptoids were then exposed to a mixture of trifluoroacetic acid (TFA): triisopropylsilane: water (95∶2.5∶2.5, volume ratio) for 10 minutes to cleave peptoids from the resin. Crude peptoids were purified by reversed-phase high performance liquid chromatography (RP-HPLC) (Waters Corporation) using a C18 column and a linear acetonitrile/water gradient. A final purity >95% as measured by analytical RP-HPLC (Waters Corporation) was achieved, and the identity of each peptoid was confirmed using electrospray ionization mass spectrometry (ESI/MS). Pexiganan was synthesized by standard Fmoc chemistry on an ABI 433A peptide synthesizer ([…]). Unless indicated otherwise, all reagents were purchased from Sigma Aldrich (St. Louis, MO). Among the submonomers used, Nspe was derived from (S)-N-(1-phenylethyl)amine; Npm from benzylamine ([…]); NHis from histamine (2-[4-imidazolyl]ethylamine); NLeu from isobutylamine; NLys from N-tert-butoxycarbonyl-1,4-butanediamine (CNH Technologies, MA). Guanidinylation of NLys was carried out according to the reported procedure. When NHis was used in the peptoid sequence, chloroacetic acid was used. 5(6)-Carboxyfluorescein was used to label the N-terminus of peptoid 1 [28].
Peptoids were utilized herein as a peptidomimetic scaffold to capture the cationic, amphipathic nature of anticancer peptides, as well as to improve molecular stability and to increase chemical diversity. The design of anticancer peptoids were derived from previous antimicrobial peptoids and were further optimized hererin to improve the activity and selectivity of peptoids against anionic membranes, [24], [25]. […] Several novel variants were designed based on peptoid 1 but with different charges, amphipathicity, length, and helicity to change their activity or selectivity. The sequences of these variants, the solvent composition at RP-HPLC elution as a relative measure of molecular hydrophobicity, molecular net charges and their charge-to-length ratio are summarized in Table 1. […] Pexiganan, a clinically-relevant peptide analog of magainin 2 which was developed for topical treatment for diabetic foot infection, and LL-37, the only known human cathelicidin which is a non-selective antimicrobial peptide, were also tested for comparison.

MCF-7 (breast cancer) = assay: MTS cell viability assay, MCF-7; assay type: cell-based
Experimental: (§1) MCF-7, MCF-7/TxT50 and OVCAR-3 (available in ATCC) were kindly provided by Professor Branimir Sikic's lab at Stanford University, and were cultured in McCoy's 5A media (GIBCO) with 10% FBS and antibiotics. Primary dermal fibroblasts were gifts from Lifeline Cell Technology and were cultured <6 passages according to the protocol Lifeline provides. All the cells were cultured in cell incubators (Thermo Scientific) at 37°C with 5% CO2.
(§2) This assay is a colorimetric method for determining the number of viable cells in proliferation. Aliquots of 100 µl media containing 1×10^4 cells were distributed into each well of a 96-well plate (BD Falcon). The following day, when cell density reaches about ∼40% confluency, the cell media were removed and replaced with serial dilutions of peptoid stocks in culturing media. For peptoid dilutions, peptoid stocks were initially diluted in media at 100 µM and then diluted by half in series using a multichannel pipette, and maintained in 100 µl media for each concentration with triple repeats. After peptoid solutions were transferred onto cells in 96-well plates, cells were incubated at 37°C for certain time periods. Then 20 µl of the CellTiter 96 Aqueous Non-Radioactive cell proliferation assay (Promega) reagent which contains a tetrazolium compound, [3-(4,5-dimethylthiazol-2-yl)-5-(3-carboxymethoxyphenyl)-2-(4-sulfophenyl)-2H-tetrazolium, inner salt; MTS(a)], was added to each well and cells were further incubated for 2 h to metabolize. The absorbance of formazan products were measured at 490 nm in a microplate reader (Molecular Devices). Percentage of cell viability = (A -A testblank)/(A control -A blank)×100, where A is the absorbance of the test well and A control the average absorbance of wells with cells not treated with peptoids. A testblank (media, MTS, and diluted peptoids) and A blank (media and MTS) were background absorbances measured in the absence of cells.
(§3) The activity and selectivity of these peptoids against cancer cells were evaluated in vitro. Their cytotoxicity was tested in three cancer cell lines, MCF-7 (human breast cancer), LNCaP (human prostate cancer), and OVCAR-3 (human ovarian cancer). To estimate the selectivity of these peptoids in vitro, hemolytic activities of some peptoids were cited from previously published work (Table 2 **column), and the MRC-5 cell line (human fibroblasts derived from fetal lung tissues) and primary dermal fibroblasts were also tested as normal cell controls. Briefly, cells were treated with peptoids diluted in culturing media for certain time periods, and then cell viability was measured via MTS assays.

LNCaP (prostate cancer) = assay: MTS cell viability assay, LNCaP; assay type: cell-based
Experimental: as §2, §3

OVCAR3 (ovarian cancer) = assay: MTS cell viability assay, OVCAR3; assay type: cell-based
Experimental: as §1, §2, §3

[2] = tested on: MRC-5 (fetal lung fibroblast); assay: MTS cell viability assay, MRC-5; assay type: cell-based
Experimental: as §1, §2, §3

[3] = tested on: Primary dermal fibroblast; assay: MTS cell viability assay, primary dermal fibroblasts; assay type: cell-based
Experimental: as §1, §2, §3

human red blood cells = settings: cited from earlier work
Text: Table 2 Peptoid Cytotoxicity in cancer cell lines and control cells. | column: HC10 (µM) ** || The chain length is believed to influence not only the activity but also modes of action of cationic, amphipathic peptides, [34]. […] Thus we limited the chain length of peptoids to 13 residues at most, and studied 1 9mer which has the same charge-to-length ratio (CTLR) as peptoid ...

[4] = MTS assay, 72 h treatment, media with 10% FBS, max 100 µM tested, triple repeats
[5] = normal cell control, MTS assay, 72 h treatment, media with 10% FBS, max 100 µM tested

Molecule	HPLC elution [1] [% ACN]	LC50 MCF-7 (breast cancer) (MCF-7 (breast cancer); 72 h) [µM]	LC50 LNCaP (prostate cancer) (LNCaP (prostate cancer); 72 h) [µM]	LC50 OVCAR3 (ovarian cancer) (OVCAR3 (ovarian cancer); 72 h) [µM]	LC50 MRC-5 (fetal lung fibroblast) ([2]; 72 h) [µM]	LC50 Primary dermal fibroblast ([3]; 72 h) [µM]	HC10 (human red blood cells) [µM]	LC50 MCF-7 (breast cancer) (MCF-7 (breast cancer); [4]) [µM]	LC50 LNCaP (prostate cancer) (LNCaP (prostate cancer); [4]) [µM]	LC50 OVCAR3 (ovarian cancer) (OVCAR3 (ovarian cancer); [4]) [µM]	LC50 MRC-5 (fetal lung fibroblast) [2, 5] [µM]	LC50 Primary dermal fibroblast [3, 5] [µM]	hemolytic activity (human red blood cells)
C[C@@H](c1ccccc1)N(CC(N)=O)C(=O)CN(C(=O)CN(CCCCN)C(=O)CN(C(=O)CN(C(=O)CN(CCCCN)C(=O)CN(C(=O)CN(C(=O)CNCCCCN)[C@@H](C)c1ccccc1)[C@@H](C)c1ccccc1)[C@@H](C)c1ccccc1)[C@@H](C)c1ccccc1)[C@@H](C)c1ccccc1 [1 9mer, H-(NLys-Nspe-Nspe)3-NH2] (H-[Nlys][Nspe][Nspe][Nlys][Nspe][Nspe][Nlys][Nspe][Nspe]-NH2)	60	30	27	34	40	32	150	–	–	–	–	–	–
C[C@@H](c1ccccc1)N(CC(N)=O)C(=O)CN(CCCCN)C(=O)CN(C(=O)CN(C(=O)CN(CCCCN)C(=O)CN(C(=O)CN(C(=O)CN(CCCCN)C(=O)CN(C(=O)CN(C(=O)CNCCCCN)[C@@H](C)c1ccccc1)[C@@H](C)c1ccccc1)[C@@H](C)c1ccccc1)[C@@H](C)c1ccccc1)[C@@H](C)c1ccccc1)[C@@H](C)c1ccccc1 [1 11mer, H-(NLys-Nspe-Nspe)3-NLys-Nspe-NH2] (H-[Nlys][Nspe][Nspe][Nlys][Nspe][Nspe][Nlys][Nspe][Nspe][Nlys][Nspe]-NH2)	63.5	11	10	10	24	19	103	–	–	–	–	–	–
CC(C)CN(CC(N)=O)C(=O)CN(CCCCN)C(=O)CN(CC(C)C)C(=O)CN(CC(C)C)C(=O)CN(CCCCN)C(=O)CN(CC(C)C)C(=O)CN(CC(C)C)C(=O)CN(CCCCN)C(=O)CN(CC(C)C)C(=O)CN(CC(C)C)C(=O)CNCCCCN [1 11mer-NLeu, H-(NLys-NLeu-NLeu)3-NLys-NLeu-NH2]	51	>100	>100	>100	>100	>100	–	–	–	–	–	–	–
C[C@@H](c1ccccc1)N(CC(N)=O)C(=O)CN(Cc1ccccc1)C(=O)CN(CCCCN)C(=O)CN(Cc1ccccc1)C(=O)CN(Cc1ccccc1)C(=O)CN(CCCCN)C(=O)CN(Cc1ccccc1)C(=O)CN(Cc1ccccc1)C(=O)CN(CCCCN)C(=O)CN(Cc1ccccc1)C(=O)CN(C(=O)CNCCCCN)[C@@H](C)c1ccccc1 [1 achiral-Nspe2, 12, H-NLys-Nspe-Npm-(NLys-Npm-Npm)2-NLys-Npm-Nspe-NH2]	62	12	10	16	21	32	–	–	–	–	–	–	–
CC[C@H](C)[C@H](NC(=O)[C@H](CCCCN)NC(=O)[C@H](CCC(=O)O)NC(=O)[C@H](CCCCN)NC(=O)[C@H](CO)NC(=O)[C@H](CCCCN)NC(=O)[C@H](CCCNC(=N)N)NC(=O)[C@H](Cc1ccccc1)NC(=O)[C@H](Cc1ccccc1)NC(=O)[C@H](CC(=O)O)NC(=O)CNC(=O)[C@H](CC(C)C)NC(=O)[C@@H](N)CC(C)C)C(=O)NCC(=O)N[C@@H](CCCCN)C(=O)N[C@@H](CCC(=O)O)C(=O)N[C@@H](Cc1ccccc1)C(=O)N[C@@H](CCCCN)C(=O)N[C@@H](CCCNC(=N)N)C(=O)N[C@H](C(=O)N[C@H](C(=O)N[C@@H](CCC(N)=O)C(=O)N[C@@H](CCCNC(=N)N)C(=O)N[C@H](C(=O)N[C@@H](CCCCN)C(=O)N[C@@H](CC(=O)O)C(=O)N[C@@H](Cc1ccccc1)C(=O)N[C@@H](CC(C)C)C(=O)N[C@@H](CCCNC(=N)N)C(=O)N[C@@H](CC(N)=O)C(=O)N[C@@H](CC(C)C)C(=O)N[C@H](C(=O)N1CCC[C@H]1C(=O)N[C@@H](CCCNC(=N)N)C(=O)N[C@H](C(=O)N[C@@H](CCC(=O)O)C(=O)N[C@@H](CO)C(=O)O)[C@@H](C)O)C(C)C)[C@@H](C)CC)C(C)C)[C@@H](C)CC [LL 37, LL-37, reference compound]	–	21	27	24	24	26	–	–	–	–	–	–	–
C[C@@H](c1ccccc1)N(CC(N)=O)C(=O)CN(C(=O)CN(CCCCNC(=N)N)C(=O)CN(C(=O)CN(C(=O)CN(CCCCNC(=N)N)C(=O)CN(C(=O)CN(C(=O)CN(CCCCNC(=N)N)C(=O)CN(C(=O)CN(C(=O)CNCCCCNC(=N)N)[C@@H](C)c1ccccc1)[C@@H](C)c1ccccc1)[C@@H](C)c1ccccc1)[C@@H](C)c1ccccc1)[C@@H](C)c1ccccc1)[C@@H](C)c1ccccc1)[C@@H](C)c1ccccc1 [Peptoid 1-Nbtg, H-(Nbtg-Nspe-Nspe)4-NH2] (H-[NhArg][Nspe][Nspe][NhArg][Nspe][Nspe][NhArg][Nspe][Nspe][NhArg][Nspe][Nspe]-NH2)	–	5	8	8	10	8	–	–	–	–	–	–	–
CC[C@H](C)[C@H](NC(=O)CN)C(=O)NCC(=O)N[C@@H](CCCCN)C(=O)N[C@@H](Cc1ccccc1)C(=O)N[C@@H](CC(C)C)C(=O)N[C@@H](CCCCN)C(=O)N[C@@H](CCCCN)C(=O)N[C@@H](C)C(=O)N[C@@H](CCCCN)C(=O)N[C@@H](CCCCN)C(=O)N[C@@H](Cc1ccccc1)C(=O)NCC(=O)N[C@@H](CCCCN)C(=O)N[C@@H](C)C(=O)N[C@@H](Cc1ccccc1)C(=O)N[C@H](C(=O)N[C@@H](CCCCN)C(=O)N[C@H](C(=O)N[C@@H](CC(C)C)C(=O)N[C@@H](CCCCN)C(=O)N[C@@H](CCCCN)C(N)=O)[C@@H](C)CC)C(C)C [Pexiganan, reference compound] (H-GIGKFLKKAKKFGKAFVKILKK-NH2)	–	–	–	–	–	–	70	8	6	13	21	19	–
H-(NLys-Nspe-Nspe)5-NH2 [peptoid 1 15mer, reference compound]	–	–	–	–	–	–	–	–	–	–	–	–	substantially higher hemolytic activity

Reference: PMC3938723, “Learning from Host-Defense Peptides: Cationic, Amphipathic Peptoids with Potent Anticancer Activity” (PLoS ONE, 2014)
